“Also recorded” adds a separate entry of the source.

Series [1] deals with P. horikoshii RtcB. Put plainly: P. horikoshii RtcB RNA ligation assay. The format is biochemical, Pyrococcus horikoshii. The following applies: for use as cofactor in RNA ligation with Archease: Archease 0.25 μM, NTP 100 μM, RtcB 5 μM (FIG. 10B, 11B). The source says: FIG. 2. P. horikoshii RtcB catalyzed ligation of 3′-P and 5′-OH RNA termini. P. horikoshii RtcB requires Mn^2+ and GTP for ligation. […] The lane labeled “2′-deoxy” is a ligation reaction using the tRNA mimic substrate but with a 3′-P/2′-H termini on its 5′ fragment. The lane labeled “C98A” is a ligation reaction with RtcB that has a C98A substitution within the predicted metal-binding site.
RtcB from the archaeal domain of life likewise catalyzes the GTP-dependent ligation of 3′-P and 5′-OH RNA termini. The crystal structure of RtcB from a hyperthermophilic archaeon, Pyrococcus horikoshii, was determined as part of a structural genomics project (21). […] The P. horikoshii homologue has 29% amino-acid sequence identity to E. coli RtcB, and 49% identity to the human ligase (HSPC117). To investigate if RtcB from archaea catalyzes the GTP-dependent ligation of 3′-P and 5′-OH RNA termini, we synthesized a P. horikoshii rtcB gene and produced soluble enzyme in E. coli. […] The P. horikoshii ligase also required a 2′-OH on the terminal nucleotide of the 5′ RNA fragment.
RNA Ligation Assay. Ligation assays with single-stranded RNA as the substrate used two 10-nt oligonucleotides that were synthesized by Integrated DNA Technologies (15). […] The 3′ RNA fragment had hydroxyl groups on each end. The sequence of the 5′ fragment was FAM-5′-AAAUAACAAA-3′-P (SEQ ID NO:6) and the sequence of the 3′ RNA fragment was 5′-AAAUAACAAA-3′ (SEQ ID NO:6). Ligation reactions were performed in 10-μL solutions consisting of 50 mM Bis-Tris buffer, pH 7.0, containing NaCl (300 mM), […] (0.25 mM), GTP (100 μM), each RNA fragment (1 μM), and RtcB (10 μM). Reaction mixtures were incubated at 70° C. for 1 h prior to the addition of water (40 μL) and RNA-loading buffer (50 μL). Reaction mixtures were subjected to electrophoresis and visualized as previously described in the previous examples.
The ability of Archease to activate P. horikoshii RtcB was tested in reactions using ssRNA substrates. Ligation reactions included a 10-nt 5′ RNA fragment and a 10-nt 3′ RNA fragment. […] The 3′ RNA fragment had hydroxyl groups on each end. The sequence of the 5′ fragment was FAM-5′-AAAUAACAAA-3′-P (SEQ ID NO:6) and the sequence of the 3′ RNA fragment was 5′-AAAUAACAAA-3′ (SEQ ID NO:6). Ligation reactions were performed in 50-μL solutions consisting of 50 mM Tris-HCl buffer, pH 7.4, containing NaCl (300 mM), MnCl2 (0.25 mM), GTP (100 μM), RNA fragments (100 pmol of each), and P. horikoshii RtcB (5 μM).
Ligation reaction mixtures were set up as described above, and each was divided into two tubes. No Archease was added to one set of reaction mixtures (FIG. 10A), and Archease was added to a concentration of 0.25 μM to the other set (FIG. 10B). […] Archease had no effect on ligation reactions that used 2′-F RNA.
We tested the ability of Archease to enable RtcB to use cofactors other than GTP or dGTP. Ligation reaction mixtures with RtcB were set up as described above, and each was divided into two tubes. No Archease was added to one set of reaction mixtures (FIG. 11A), and Archease was added to a concentration of 0.25 μM to the other set (FIG. 11B). The various NTPs were included at a concentration of 100 μM.

Series [2] concerns Escherichia coli RtcB ligase. The series can be described thus: E. coli RtcB RNA ligation assay (3′-P and 5′-OH termini, urea-polyacrylamide gel). The format is biochemical. The following applies: for use as cofactor in ligation of 3′-P and 5′-OH RNA termini: in place of GTP, tRNA anticodon stem-loop mimic substrate, with Mn2+ (FIG. 1B, 1C). The source says: FIG. 1. […] (A) RNA ligation substrate that mimics a broken tRNA anti-codon. FAM label allows visualization in a urea-polyacrylamide gel. […] (B) Cofactor- and metal-dependence of ligation. Reactions contain manganese, except in the “—Mn^2+” lane. The lane labeled “C78A” is a ligation reaction performed with RtcB that has a C78A substitution within the predicted metal binding site. (C) Ligation assays using GTP analogues as cofactors. […] (E) RNA termini specificity of RtcB. Modifications to the ligatable ends of the tRNA mimic substrate were made as indicated and tested in ligation reactions.
To assay for ligation, we initially used two single-stranded RNA (ssRNA) oligos that were each 10 nucleotides in length. The 5′ RNA fragment was labeled with 6-carboxyfluorescein (FAM) at its 5′ end and phosphorylated at its 3′ end. The 3′ RNA fragment had hydroxyl groups at each end. We intended to convert the 3′-P into a 2′,3′-cyclic phosphate by incubation with RtcA and ATP, so as to produce a suitable substrate for RtcB.
These reactions were performed with high concentrations of GTP analogues to ensure saturation of RtcB.
We investigated the RNA termini structure requirements for ligation by modifying the ends of our tRNA mimic substrate. First, all four combinations of either a phosphate or hydroxyl group at each termini were sampled while maintaining a 2′-OH on the 5′ side of the ligation junction. […] Next, the importance of the terminal ribose 2′-OH for ligation was probed by replacing this hydroxyl group with either hydrogen (2′-H) or fluorine (2′-F).

On to `Nc1ccn([C@@H]2O[C@H](COP(=O)(O)OP(=O)(O)OP(=O)(O)O)[C@@H](O)[C@H]2O)c(=O)n1` [CTP], for which the “use as cofactor in RNA ligation with Archease” value (from here on “use as cofactor … with Archease”) in series [1] is reported as “not”. Also, the “use as cofactor in ligation of 3′-P and 5′-OH RNA termini” value (“use … of 3′-P and 5′-OH RNA termini” below) in series [2] is listed as “unable to substitute for GTP”. Turning to `Nc1nc2c(ncn2[C@@H]2O[C@H](COP(=O)(O)OP(=O)(O)O)[C@@H](O)[C@H]2O)c(=O)[nH]1` [GDP], the “use … of 3′-P and 5′-OH RNA termini” value in series [2] is listed as “allowed for low levels of ligation”. The same measure, in the same setting: with `Nc1nc2c(ncn2[C@@H]2O[C@H](COP(=O)(O)O)[C@@H](O)[C@H]2O)c(=O)[nH]1` [GMP] the entry was “allowed for low levels of ligation”; with `Nc1nc2c(ncn2[C@@H]2O[C@H](COP(=O)(O)OP(=O)(O)OP(O)(O)=S)[C@@H](O)[C@H]2O)c(=O)[nH]1` [GTPγS], “enabled ligation, albeit at lower efficiency than did GTP”; with `Nc1nc2c(ncn2C2OC(COP(=O)(O)CP(=O)(O)OP(=O)(O)O)C(O)C2O)c(=O)[nH]1` (stereo not drawn) [GpCpp, guanosine 5′-(α,β-methyleno)-triphosphate], “unreactive; also recorded: did not enable the ligation to proceed”. For `Nc1nc2c(ncn2[C@@H]2O[C@H](COP(=O)(O)OP(=O)(O)CP(=O)(O)O)[C@@H](O)[C@H]2O)c(=O)[nH]1` [GppCp], the “use … of 3′-P and 5′-OH RNA termini” value in series [2] is given as “enabled ligation, albeit at lower efficiency than did GTP”. Regarding `Nc1nc2c(ncn2[C@@H]2O[C@H](COP(=O)(O)OP(=O)(O)NP(=O)(O)O)[C@@H](O)[C@H]2O)c(=O)[nH]1` [GppNHp], the “use … of 3′-P and 5′-OH RNA termini” value in series [2] was “enabled ligation, albeit at lower efficiency than did GTP”. In the case of `NC(=O)c1ccc[n+]([C@@H]2O[C@H](COP(=O)([O-])OP(=O)(O)OC[C@H]3O[C@@H](n4cnc5c(N)ncnc54)[C@H](O)[C@@H]3O)[C@@H](O)[C@H]2O)c1` [NAD^+], the “use … of 3′-P and 5′-OH RNA termini” value in series [2] is “unable to substitute for GTP”. `O=c1ccn([C@@H]2O[C@H](COP(=O)(O)OP(=O)(O)OP(=O)(O)O)[C@@H](O)[C@H]2O)c(=O)[nH]1` [UTP]: in series [1], the “use as cofactor … with Archease” value is listed as “not”. In addition, in series [2], the “use … of 3′-P and 5′-OH RNA termini” value is on record as “unable to substitute for GTP”. Take `Nc1nc2c(ncn2[C@H]2C[C@H](O)[C@@H](COP(=O)(O)OP(=O)(O)OP(=O)(O)O)O2)c(=O)[nH]1` [dGTP, deoxyguanosine-5′-triphosphate]: the “use as cofactor … with Archease” value in series [1] is recorded as “enables RtcB to use dGTP efficiently as a cofactor”. Moreover, the “use as cofactor in RNA ligation” value in series [1] (RtcB alone, no Archease, ssRNA 10-nt substrates) is given as “ligation activity is reduced substantially; also recorded: at a rate that is much lower than that with GTP; also recorded: ligation efficiency is reduced greatly”.

B1: C98A: P. horikoshii RtcB with Cys98→Ala98 substitution within predicted metal-binding site (protein, UniProt O59245 1-871, looked up, variant C98A)
chain: MVVPLKRIDKIRWEIPKFDKRMRVPGRVYADEVLLEKMKNDRTLEQATNVAMLPGIYKYSIVMPDGHQGYGFPIGGVAAFDVKEGVISPGGIGYDINALAPGTRVLTEHGYWLKIEEMPEKFKLQRLRVYNIEEGHNDFSKVVFVAEREVGSEEKAIRIVTESGKVIEGSEDHPVLTPEGYVYLRNVKEGDYILVYPFEGVPYEEKKGVILDESAFEGEDPQVVKFLRERNLIPLQWKDPKVGILARILGFALANGYISENDNLTFHGKEEVLREVRKDLEELGIEAIVAEEDKLKVTSREFAFLLEKLGMAHDSIPEWIIEGPLWIKRNFLAGLFGANGSIVEFKGDVPLPITLTHSRELLNDVSRILEGFKVRAKIKMGKNGSYQLVIEDEDSIRNFLGRINYEYDPEKKARGLIAYAYLKFKELMKGNLMTFEEFARDRGYEGGFVAEKVIEVKSVKPEYDKFYDIGVYHSAHNFIANGIVVHNCGVRLIRTNLTEKEVRPRIKQLVDTLFKNVPSGVGSQGRIKLHWTQIDDVLVDGAKWAVDNGYGWERDLERLEEGGRMEGADPEAVSQRAKQRGAPQLGSLGSGNHFLEVQVVDKIFDPEVAKAYGLFEGQVVVMVHTGSRGLGHQVASDYLRIMERAIRKYRIPWPDRELVSVPFQSEEGQRYFSAMKAAANFAWANRQMITHWVRESFQEVFKQDPEGDLGMDIVYDVAHNIGKVEEHEVDGKRVKVIVHRKGATRAFPPGHEAVPRLYRDVGQPVLIPGSMGTASYILAGTEGAMKETFGSTCHGAGRVLSRKAATRQYRGDRIRQELLNRGIYVRAASMRVVAEEAPGAYKNVDNVVKVVSEAGIAKLVARMRPIGVAKG
With B1, the “ligase activity of RtcB variant” value in series [1] (alanine substitution) is “abolishes ligase activity”.

B2: C78A: E. coli RtcB with Cys78→Ala78 substitution within predicted metal-binding site (protein, UniProt P46850 1-408, looked up, variant C78A)
RNA-splicing ligase RtcB: MNYELLTTENAPVKMWTKGVPVEADARQQLINTAKMPFIFKHIAVMPDVHLGKGSTIGSVIPTKGAIIPAAVGVDIGAGMNALRTALTAEDLPENLAELRQAIETAVPHGRTTGRCKRDKGAWENPPVNVDAKWAELEAGYQWLTQKYPRFLNTNNYKHLGTLGTGNHFIEICLDESDQVWIMLHSGSRGIGNAIGTYFIDLAQKEMQETLETLPSRDLAYFMEGTEYFDDYLKAVAWAQLFASLNRDAMMENVVTALQSITQKTVRQPQTLAMEEINCHHNYVQKEQHFGEEIYVTRKGAVSARAGQYGIIPGSMGAKSFIVRGLGNEESFCSCSHGAGRVMSRTKAKKLFSVEDQIRATAHVECRKDAEVIDEIPMAYKDIDAVMAAQSDLVEVIYTLRQVVCVKG
As to B2, the “ligase activity of RtcB variant” value in series [2] (substitution within predicted metal-binding site) is on record as “abolished ligase activity”.

B3: Archease: Pyrococcus horikoshii Archease (SEQ ID NO:9; UniProt O59205), N-terminal hexahistidine tag (protein, listed as Pyrococcus horikoshii)
chain: MKKWEHYEHTADIGIRGYGDSLEEAFEAVAIALFDVMVNVNKVEKKEVREIEVEAEDLEALLYSFLEELLVIHDIEGLVFRDFEVKIERVNGKYRLRAKAYGEKLDLKKHEPKEEVKAITYHDMKIERLPNGKWMAQLVPDI
modifications: N-terminal His6 tag
As to B3, the “effect of Archease on catalysis of RNA ligation by RtcB” value in series [1] (Archease at concentrations lower than RtcB or RNA, GTP 100 μM (FIG. 9)) was “significantly enhances the catalytic activity of RtcB”.

The values are drawn from US20130203635A1, “NUCLEIC ACID LIGATION METHOD” (priority 2012, published 2013).
